Laboratory results published in patent US12404295B2, “(Hetero)aryl-methyl-thio-beta-D-galactopyranoside derivatives” (Idorsia Pharmaceuticals Ltd, priority 2019, dated 2025).
Read-outs that look alike come from different tables or passages of the source.

Columns and labels:
human Gal-1 (hGal-1) = human Gal-1 (hGal-1) (Homo sapiens (Human), UniProt P09382); test: competitive binding assay: biotinylated hGal-1 binding to microplate-adsorbed asialofetuin (ASF); conditions: Table 15; read-out: IC50 (Galectin-1 inhibition)
How it was run: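 Spectrophotometric competition readout: after compound and biotinylated hGal-1 (300-1000 ng/mL) sit 3 h at 4° C on adsorbed asialofetuin, streptavidin-peroxidase (1 h, 4° C) and ABTS reveal residual binding. Reported IC50 values are means of repeat runs.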

human Gal-3 (hGal-3) = human Gal-3 (hGal-3) (Homo sapiens (Human), UniProt P17931); test: competitive binding assay: biotinylated hGal-3 binding to microplate-adsorbed asialofetuin (ASF)
How it was run: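 Serially diluted compounds compete with biotinylated hGal-3 binding to adsorbed asialofetuin (3 hours, 4° C). After washing, streptavidin-peroxidase at 80 ng/mL for 1 hour at 4° C, with ABTS colour read-out. IC50 values are averaged over repeated runs.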

[1] = Table 11, read-out: IC50 (Gal-3 inhibition)
[2] = Gal-3 inhibition, binding of biotinylated hGal-3 to ASF, mean values, read-out: IC50

human Gal-1 (hGal-1), sequence (P09382 whole entry): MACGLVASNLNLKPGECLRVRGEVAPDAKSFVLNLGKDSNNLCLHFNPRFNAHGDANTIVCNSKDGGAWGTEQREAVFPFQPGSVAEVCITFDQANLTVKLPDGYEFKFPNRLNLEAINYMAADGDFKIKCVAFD
human Gal-3 (hGal-3), sequence (P17931 whole entry): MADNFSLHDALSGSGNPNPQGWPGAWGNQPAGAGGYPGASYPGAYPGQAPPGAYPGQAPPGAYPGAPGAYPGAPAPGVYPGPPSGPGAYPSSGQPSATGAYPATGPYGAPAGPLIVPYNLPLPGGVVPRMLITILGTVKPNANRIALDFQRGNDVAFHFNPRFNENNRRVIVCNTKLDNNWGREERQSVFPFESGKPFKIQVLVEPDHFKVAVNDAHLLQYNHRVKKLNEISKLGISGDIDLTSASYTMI

Row | IC50 (human Gal-1 (hGal-1)) [µM] | IC50 (human Gal-3 (hGal-3); [1]) [µM] | IC50 (human Gal-3 (hGal-3); [2]) [µM] | Compound
1 | 0.76 | 0.19 | – | CO[C@@H]1[C@@H](n2cc(-c3cc(F)c(F)c(F)c3)nn2)[C@@H](O)[C@@H](CO)O[C@H]1S[C@H](c1nccc(C(F)(F)F)c1C)C1(O)CCC(F)(F)CC1 [Example 2.44.147R.I., (2R,3R,4S,5R,6S)-6-(((R)-(4,4-Difluoro-1-hydroxycyclohexyl)(3-methyl-4-(trifluoromethyl)pyridin-2-yl)methyl)thio)-2-(hydroxymethyl)-5-methoxy-4-(4-(3,4,5-trifluorophenyl)-1H-1,2,3-triazol-1-yl)tetrahydro-2H-pyran-3-ol]
2 | 31.8 | 5.3 | – | CO[C@@H]1[C@@H](n2cc(-c3cc(F)c(F)c(F)c3)nn2)[C@@H](O)[C@@H](CO)O[C@H]1S[C@@H](c1nccc(C(F)(F)F)c1C)C1(O)CCC(F)(F)CC1 [Example 2.44.147S.I., (2R,3R,4S,5R,6S)-6-(((S)-(4,4-Difluoro-1-hydroxycyclohexyl)(3-methyl-4-(trifluoromethyl)pyridin-2-yl)methyl)thio)-2-(hydroxymethyl)-5-methoxy-4-(4-(3,4,5-trifluorophenyl)-1H-1,2,3-triazol-1-yl)tetrahydro-2H-pyran-3-ol]
3 | 3.04 | 0.24 | – | CO[C@@H]1[C@@H](n2cc(-c3cc(F)c(F)c(F)c3)nn2)[C@@H](O)[C@@H](CO)O[C@H]1S[C@H](c1nc(C)ccc1Cl)C1(O)CCC(F)(F)CC1 [Example 2.44.148R.I., (2R,3R,4S,5R,6S)-6-(((R)-(3-Chloro-6-methylpyridin-2-yl)(4,4-difluoro-1-hydroxycyclohexyl)methyl)thio)-2-(hydroxymethyl)-5-methoxy-4-(4-(3,4,5-trifluorophenyl)-1H-1,2,3-triazol-1-yl)tetrahydro-2H-pyran-3-ol]
4 | 31 | 6.99 | – | CO[C@@H]1[C@@H](n2cc(-c3cc(F)c(F)c(F)c3)nn2)[C@@H](O)[C@@H](CO)O[C@H]1S[C@@H](c1nc(C)ccc1Cl)C1(O)CCC(F)(F)CC1 [Example 2.44.148S.I., (2R,3R,4S,5R,6S)-6-(((S)-(3-Chloro-6-methylpyridin-2-yl)(4,4-difluoro-1-hydroxycyclohexyl)methyl)thio)-2-(hydroxymethyl)-5-methoxy-4-(4-(3,4,5-trifluorophenyl)-1H-1,2,3-triazol-1-yl)tetrahydro-2H-pyran-3-ol]
5 | 2.8 | 0.4 | – | CO[C@@H]1[C@@H](n2cc(-c3cc(F)c(F)c(F)c3)nn2)[C@@H](O)[C@@H](CO)O[C@H]1SC(c1nc(C)ccc1C)C1(O)CCC(F)(F)CC1 (stereo partly drawn) [Example 2.44.149.I., (2R,3R,4S,5R,6S)-6-(((4,4-Difluoro-1-hydroxycyclohexyl)(3,6-dimethylpyridin-2-yl)methyl)thio)-2-(hydroxymethyl)-5-methoxy-4-(4-(3,4,5-trifluorophenyl)-1H-1,2,3-triazol-1-yl)tetrahydro-2H-pyran-3-ol]
6 | 0.46 | – | 0.13 | OC[C@H]1O[C@@H](SC(c2ccccc2C(F)(F)F)C2(O)CCNCC2)[C@H](O)[C@@H](n2cc(-c3cc(F)c(F)c(F)c3)nn2)[C@H]1O (stereo partly drawn) [Example 2.45.112., (2R,3R,4S,5R,6S)-2-(Hydroxymethyl)-6-(((4-hydroxypiperidin-4-yl)(2-(trifluoromethyl)phenyl)methyl)thio)-4-(4-(3,4,5-trifluorophenyl)-1H-1,2,3-triazol-1-yl)tetrahydro-2H-pyran-3,5-diol]
7 | 0.27 | – | 0.05 | CNS(=O)(=O)N1CCC(O)(C(S[C@@H]2O[C@H](CO)[C@H](O)[C@H](n3cc(-c4cc(F)c(F)c(F)c4)nn3)[C@H]2O)c2ccccc2C(F)(F)F)CC1 (stereo partly drawn) [Example 2.46.112., 4-((((2S,3R,4S,5R,6R)-3,5-Dihydroxy-6-(hydroxymethyl)-4-(4-(3,4,5-trifluorophenyl)-1H-1,2,3-triazol-1-yl)tetrahydro-2H-pyran-2-yl)thio)(2-(trifluoromethyl)phenyl)methyl)-4-hydroxy-N-methylpiperidine-1-sulfonamide]
8 | 0.12 | – | 0.03 | CS(=O)(=O)N1CCC(O)([C@H](S[C@@H]2O[C@H](CO)[C@H](O)[C@H](n3cc(-c4cc(F)c(F)c(F)c4)nn3)[C@H]2O)c2ccccc2C(F)(F)F)CC1 [Example 2.47.112R., (2S,3R,4S,5R,6R)-2-(((R)-(4-Hydroxy-1-(methylsulfonyl)piperidin-4-yl)(2-(trifluoromethyl)phenyl)methyl)thio)-6-(hydroxymethyl)-4-(4-(3,4,5-trifluorophenyl)-1H-1,2,3-triazol-1-yl)tetrahydro-2H-pyran-3,5-diol]
9 | 17.5 | – | 2.82 | CS(=O)(=O)N1CCC(O)([C@@H](S[C@@H]2O[C@H](CO)[C@H](O)[C@H](n3cc(-c4cc(F)c(F)c(F)c4)nn3)[C@H]2O)c2ccccc2C(F)(F)F)CC1 [Example 2.47.112S., (2S,3R,4S,5R,6R)-2-(((S)-(4-Hydroxy-1-(methylsulfonyl)piperidin-4-yl)(2-(trifluoromethyl)phenyl)methyl)thio)-6-(hydroxymethyl)-4-(4-(3,4,5-trifluorophenyl)-1H-1,2,3-triazol-1-yl)tetrahydro-2H-pyran-3,5-diol]
10 | 0.75 | – | 0.22 | CC(=O)N1CCC(O)(C(S[C@@H]2O[C@H](CO)[C@H](O)[C@H](n3cc(-c4cc(F)c(F)c(F)c4)nn3)[C@H]2O)c2ccccc2C(F)(F)F)CC1 (stereo partly drawn) [Example 2.48.112., 1-(4-((((2S,3R,4S,5R,6R)-3,5-Dihydroxy-6-(hydroxymethyl)-4-(4-(3,4,5-trifluorophenyl)-1H-1,2,3-triazol-1-yl)tetrahydro-2H-pyran-2-yl)thio)(2-(trifluoromethyl)phenyl)methyl)-4-hydroxypiperidin-1-yl)ethan-1-one]
11 | 0.4 | – | 0.19 | CO[C@@H]1[C@@H](n2cc(-c3cc(F)c(F)c(F)c3)nn2)[C@@H](O)[C@@H](CO)O[C@H]1SC(c1ccccc1C(F)(F)F)C1(O)CCN(C(C)=O)CC1 (stereo partly drawn) [Example 2.48.112.I., 1-(4-Hydroxy-4-((((2S,3R,4S,5R,6R)-5-hydroxy-6-(hydroxymethyl)-3-methoxy-4-(4-(3,4,5-trifluorophenyl)-1H-1,2,3-triazol-1-yl)tetrahydro-2H-pyran-2-yl)thio)(2-(trifluoromethyl)phenyl)methyl)piperidin-1-yl)ethan-1-one]
12 | 0.16 | – | 0.05 | O=C(NC1CC1)N1CCC(O)([C@H](S[C@@H]2O[C@H](CO)[C@H](O)[C@H](n3cc(-c4cc(F)c(F)c(F)c4)nn3)[C@H]2O)c2ccccc2C(F)(F)F)CC1 [Example 2.49.112R., N-Cyclopropyl-4-((R)-(((2S,3R,4S,5R,6R)-3,5-dihydroxy-6-(hydroxymethyl)-4-(4-(3,4,5-trifluorophenyl)-1H-1,2,3-triazol-1-yl)tetrahydro-2H-pyran-2-yl)thio)(2-(trifluoromethyl)phenyl)methyl)-4-hydroxypiperidine-1-carboxamide]
13 | 12.1 | – | 3.06 | O=C(NC1CC1)N1CCC(O)([C@@H](S[C@@H]2O[C@H](CO)[C@H](O)[C@H](n3cc(-c4cc(F)c(F)c(F)c4)nn3)[C@H]2O)c2ccccc2C(F)(F)F)CC1 [Example 2.49.112S., N-Cyclopropyl-4-((S)-(((2S,3R,4S,5R,6R)-3,5-dihydroxy-6-(hydroxymethyl)-4-(4-(3,4,5-trifluorophenyl)-1H-1,2,3-triazol-1-yl)tetrahydro-2H-pyran-2-yl)thio)(2-(trifluoromethyl)phenyl)methyl)-4-hydroxypiperidine-1-carboxamide]
14 | 0.37 | – | 0.08 | COC(=O)N1CCC(O)([C@H](S[C@@H]2O[C@H](CO)[C@H](O)[C@H](n3cc(-c4cc(F)c(F)c(F)c4)nn3)[C@H]2O)c2ccccc2C(F)(F)F)CC1 [Example 2.50.112R., Methyl 4-((R)-(((2S,3R,4S,5R,6R)-3,5-dihydroxy-6-(hydroxymethyl)-4-(4-(3,4,5-trifluorophenyl)-1H-1,2,3-triazol-1-yl)tetrahydro-2H-pyran-2-yl)thio)(2-(trifluoromethyl)phenyl)methyl)-4-hydroxypiperidine-1-carboxylate]
15 | 15.8 | – | 7.7 | COC(=O)N1CCC(O)([C@@H](S[C@@H]2O[C@H](CO)[C@H](O)[C@H](n3cc(-c4cc(F)c(F)c(F)c4)nn3)[C@H]2O)c2ccccc2C(F)(F)F)CC1 [Example 2.50.112S., Methyl 4-((S)-(((2S,3R,4S,5R,6R)-3,5-dihydroxy-6-(hydroxymethyl)-4-(4-(3,4,5-trifluorophenyl)-1H-1,2,3-triazol-1-yl)tetrahydro-2H-pyran-2-yl)thio)(2-(trifluoromethyl)phenyl)methyl)-4-hydroxypiperidine-1-carboxylate]
16 | 0.35 | – | 0.08 | CO[C@@H]1[C@@H](n2cc(-c3cc(F)c(F)c(F)c3)nn2)[C@@H](O)[C@@H](CO)O[C@H]1SC(c1ccccc1C(F)(F)F)C1(O)CCN(S(=O)(=O)C2CC2)CC1 (stereo partly drawn) [Example 2.51.112.I., 1-(Cyclopropylsulfonyl)-4-((((2S,3R,4S,5R,6R)-5-hydroxy-6-(hydroxymethyl)-3-methoxy-4-(4-(3,4,5-trifluorophenyl)-1H-1,2,3-triazol-1-yl)tetrahydro-2H-pyran-2-yl)thio)(2-(trifluoromethyl)phenyl)methyl)piperidin-4-ol]

Row | Compound | IC50 (human Gal-1 (hGal-1)) [µM] | IC50 (human Gal-3 (hGal-3); [1]) [µM] | IC50 (human Gal-3 (hGal-3); [2]) [µM]
17 | CO[C@@H]1[C@@H](n2cc(-c3cc(F)c(F)c(F)c3)nn2)[C@@H](O)[C@@H](CO)O[C@H]1SC(c1ccccc1C(F)(F)F)C1(O)CCN(C(=O)NC2CC2)CC1 (stereo partly shown) [Example 2.49.112.I.] | 0.49 | – | 0.21
